Reference: US8506950B2, “Degradable microcapsules” (ETH Zurich, priority 2008, dated 2013)
Several values for one entry are separate records, joined by “and”; a condition that tells them apart may be missing. Equal entries are not always repeated.

What was measured:
rLHR [1] = biological target: T1, rLHR (Rattus norvegicus, UniProt P16235); assay: PCRE controlled luciferase expression in HEK293T transiently transfected with rLHR; format: cell-based; parameters: Full-length cDNAs encoding the LHRs of rat (r) and bovine (b) origin; expressed in transfected cells; host or cells: HEK293T, transient transfection with pLEN-rLHR; conditions: 500 ng/ml bLH, 6 h post-induction, pLEN-rLHR + pCRE-Luc
T1 sequence (P16235 27-700): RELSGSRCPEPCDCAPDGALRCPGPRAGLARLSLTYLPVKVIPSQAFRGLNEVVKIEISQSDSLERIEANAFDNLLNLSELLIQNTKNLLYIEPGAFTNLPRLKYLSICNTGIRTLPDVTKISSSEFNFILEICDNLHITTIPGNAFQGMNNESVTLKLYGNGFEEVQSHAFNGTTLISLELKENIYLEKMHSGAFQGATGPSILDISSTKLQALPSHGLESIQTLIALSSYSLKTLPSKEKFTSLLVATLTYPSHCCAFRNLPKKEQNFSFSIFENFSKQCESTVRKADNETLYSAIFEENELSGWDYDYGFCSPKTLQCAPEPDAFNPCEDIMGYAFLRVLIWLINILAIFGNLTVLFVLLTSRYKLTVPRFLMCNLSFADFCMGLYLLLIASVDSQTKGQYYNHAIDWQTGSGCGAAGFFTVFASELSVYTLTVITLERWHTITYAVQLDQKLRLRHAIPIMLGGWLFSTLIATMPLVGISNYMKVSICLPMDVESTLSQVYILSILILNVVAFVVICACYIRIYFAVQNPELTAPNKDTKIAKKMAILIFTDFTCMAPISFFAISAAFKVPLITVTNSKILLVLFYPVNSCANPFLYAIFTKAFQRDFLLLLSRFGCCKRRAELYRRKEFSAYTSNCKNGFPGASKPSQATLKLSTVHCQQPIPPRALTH
Protocol: HEK293T cells were transiently transfected for rLHR and PCRE controlled luciferase expression. 24 hours after transfection the cells were transferred to a 96-well plate, cultured for 12 h and induced by the addition of 500 ng/ml bLH. The luciferase expression was measured 6 h post-induction. […] Luciferase expression was expressed as relative light units (RLU).
(§1) Functional expression of LHRs on the cell surface results in the stimulation of PKA and an increase of intracellular cAMP in response to bLH. It was evaluated whether the activated LHR-signaling may induce a PKA-responsive promoter. […] 24 hours post-transfection the cells were induced by bLH and the SEAP expression was determined over time. […] In comparing rLHR- and bLHR-expressing cells a 3-fold increase in maximal SEAP expression in response to bLH of the rLHR over the bLHR was detected. […]
(§2) The intracellular cAMP production of cells was quantified using the cAMP Fluorescence Polarization (FP) Biotrak Immunoassay System (GE Healthcare Bio-Sciences GmbH, Otelfingen, Switzerland, Cat No. RPN3595) according to the manufacturer's protocol. The expression of firefly luciferase was determined with the Tropix Luciferase Assay Kit (Applied Biosystems, Bedford, USA, Cat No. BC100L). […] Enhanced YFP-expression was detected by fluorescence microscopy (Leica Microsystems, Wetzlar, Germany)

rLHR [2] = biological target: T1, rLHR; assay: bLH-dependent luciferase expression in stable rLHR clone 6 (CK04); format: cell-based; parameters: Full-length cDNAs encoding the LHRs of rat (r) and bovine (b) origin; expressed in transfected cells; host or cells: CK04: HEK293T stably cotransfected with pLEN-rLHR and pZeoSV2(+), clone 6; conditions: clone 6, 500 ng/ml bLH, pCRE-Luc
Protocol: HEK293T cells were cotransfected with pLEN-LHR and pZeoSV2. After clonal expansion several single clones were transiently transfected with pCRE-Luc and screened for the functional expression of rLHR by their ability to respond to bLH. […] (□) no bLH; (▪) 500 ng/ml bLH. Luciferase expression was expressed as relative light units (RLU).
as §1, §2

- increase in luciferase expression (rLHR [1]): 10 fold and 9.9±0.1 fold
- induction of luciferase expression in response to bLH (rLHR [2]): 17.0±0.2 fold
Substance: bovine luteinizing hormone [bLH]
